# Laboratory results: patent US7056947B2, “Aza-peptide epoxides” (Georgia Tech Research Corp., priority 2002, dated 2006)
# Molecular target: T1, caspase-1 (Homo sapiens, UniProt P29466, D381E)
# T1 construct: His tag (N); made in house; host or cells: E. coli
# T1 sequence (P29466 120-297 limits assumed): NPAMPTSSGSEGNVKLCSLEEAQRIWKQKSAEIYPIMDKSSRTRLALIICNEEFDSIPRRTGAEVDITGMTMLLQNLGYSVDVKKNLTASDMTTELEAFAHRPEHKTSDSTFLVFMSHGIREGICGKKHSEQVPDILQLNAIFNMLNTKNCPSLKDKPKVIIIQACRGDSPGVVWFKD
# T1 sequence (P29466 317-404 D381E limits assumed): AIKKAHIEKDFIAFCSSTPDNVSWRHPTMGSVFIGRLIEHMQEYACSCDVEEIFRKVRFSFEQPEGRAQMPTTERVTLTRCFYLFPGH
# Assay: Caspase-1 progress curve assay
# Assay type: biochemical
# Settings: D381E variant, substrate Ac-YVAD-AMC, 30° C.
# Text: Caspase-1. The preparation of the autolytically stable caspase-1 variant used in these studies has been described previously. Briefly, the variant contains a mutation (D381E) which renders it resistant to autolytic inactivation, but has no detectable affect on enzyme activity as compared to the naturally occurring enzyme. The enzyme variant was expressed in E. coli, purified first by immobilized metal chromatography via the N-terminal N-His tag, treated with excess oxidized glutathione to stabilize the reactive thiolate, and then re-purified by size-exclusion chromatography.
# Inhibition data was measured using the progress curve assay method. Serial dilutions of each compound were prepared using an initial 8-fold dilution of a DMSO stock into HGE (100 mM HEPES,20% glycerol v/v, 0.5 mM EDTA), followed by seven serial two-fold dilutions into HGE and 12.5% DMSO, thus maintaining constant DMSO through the dilution series. Ten μL of diluted stocks or of vehicle (HGE and 12.5% DMSO) were placed in triplicate onto a 96-well microtiter plate, allowing several compounds to be tested on each plate. The plate was covered to minimize evaporation, and the plate was pre-warmed to 30° C. for 20 minutes. Enzyme was diluted into 10.0 mL of assay buffer (HGE, 5 mM DTT, plus 15 μM Ac-YVAD-AMC, 2 nM approximate final enzyme concentration), and this activated reaction mixture was added to the plate at 90 μL/well. Progress of substrate hydrolysis was monitored for 900 s in a LabSystems (Needham, Mass.) Fluoroskan Ascent fluorescent plate-reader using 385 and 460 nm excitation and emission filters, respectively, and a photomultiplier gain setting of 10. Triplicate curves were averaged and fit by nonlinear regression to the equation for irreversible inactivation shown below.
# [formula] where F0 was routinely fixed to zero, since fluorescence values were always adjusted to an origin of 0. The second order rate constant kon (M^−1s^−1) was obtained from the slopes by linear regression, and errors represent the standard deviation of the regression slope.
row,Structure (SMILES),k2 caspase-1
1,"CC(C)[C@H](NC(=O)CCc1ccccc1)C(=O)N[C@@H](C)C(=O)NN(CC(=O)O)C(=O)[C@@H]1O[C@H]1CCc1ccccc1 (relative stereo) [23a, trans-3-(N^2-(N-3-Phenylpropanoylvalylalanyl)-N^1-carboxylmethylhydrazinocarbonyl)-2-(2-phenylethyl)oxirane]",300 ± 144 M⁻¹ s⁻¹
2,"CCOC(=O)[C@@H]1O[C@H]1C(=O)N(CC(=O)O)NC(=O)[C@H](C)NC(=O)[C@@H](NC(=O)CCc1ccccc1)C(C)C [23c (R,R)]",6290 ± 1524 M⁻¹ s⁻¹
3,"CCOC(=O)[C@H]1O[C@@H]1C(=O)N(CC(=O)O)NC(=O)[C@H](C)NC(=O)[C@@H](NC(=O)CCc1ccccc1)C(C)C [23c (S,S), (2S,3S)-3-(N^2-(3-Phenylpropanoylvalylalanyl)-N^1-carboxymethylhydrazinocarbonyl)oxirane-2-carboxylic Acid Ethyl Ester]",32200 ± 14560 M⁻¹ s⁻¹
4,"CC(C)[C@H](NC(=O)CCc1ccccc1)C(=O)N[C@@H](C)C(=O)NN(CC(=O)O)C(=O)[C@@H]1O[C@H]1C(=O)OCc1ccccc1 [23d (R,R), (2R,3R)-3-(N^2-(3-Phenylpropanoylvalylalanyl)-N^1-carboxymethylhydrazinocarbonyl)oxirane-2-carboxylic Acid Benzyl Ester]",1860 ± 302 M⁻¹ s⁻¹
5,"CC(C)[C@H](NC(=O)CCc1ccccc1)C(=O)N[C@@H](C)C(=O)NN(CC(=O)O)C(=O)[C@H]1O[C@@H]1C(=O)OCCc1ccccc1 [23e, (2S,3S)-3-(N^2-(3-Phenylpropanoylvalylalanyl)-N^1-carboxymethylhydrazinocarbonyl)oxirane-2-carboxylic Acid Phenethyl Ester]",56640 ± 9322 M⁻¹ s⁻¹
6,"CC(NC(=O)C(NC(=O)CCc1ccccc1)C(C)C)C(=O)NN(CC(=O)O)C(=O)[C@@H]1O[C@H]1C(=O)NCc1ccccc1 (stereo partly drawn) [23g (R,R), (2R,3R)-2-(2-Benzylcarbamoyl)-3-(N^2-(3-phenylpropanoylvalylalanyl)-N^1-carboxymethylhydrazinocarbonyl)oxirane]",1630 ± 522 M⁻¹ s⁻¹
7,"CC(C)[C@H](NC(=O)CCc1ccccc1)C(=O)N[C@@H](C)C(=O)NN(CC(=O)O)C(=O)[C@H]1O[C@@H]1C(=O)NCc1ccccc1 [23g (S,S), (2S,3S)-2-(2-Benzylcarbamoyl)-3-(N^2-(3-phenylpropanoylvalylalanyl)-N^1-carboxymethylhydrazinocarbonyl)oxirane]",65900 ± 9153 M⁻¹ s⁻¹
8,"CC(C)[C@H](NC(=O)CCc1ccccc1)C(=O)N[C@@H](C)C(=O)NN(CC(=O)O)C(=O)[C@@H]1O[C@H]1C(=O)NCCc1ccccc1 [23h (R,R), (2R,3R)-2-(2-Phenethylcarbamoyl)-3-(N^2-(3-phenylpropanoylvalylalanyl)-N^1-carboxymethylhydrazinocarbonyl)oxirane]",950 ± 51 M⁻¹ s⁻¹
9,"CC(C)[C@H](NC(=O)CCc1ccccc1)C(=O)N[C@@H](C)C(=O)NN(CC(=O)O)C(=O)[C@H]1O[C@@H]1C(=O)NCCc1ccccc1 [23h (S,S), (2S,3S)-2-(2-Phenethylcarbamoyl)-3-(N^2-(3-phenylpropanoylvalylalanyl)-N^1-carboxymethylhydrazinocarbonyl)oxirane]",17150 ± 2254 M⁻¹ s⁻¹
10,"CC(C)[C@H](NC(=O)CCc1ccccc1)C(=O)N[C@@H](C)C(=O)NN(CC(=O)O)C(=O)[C@@H]1O[C@H]1C(=O)NCC(O)c1ccccc1 (stereo partly drawn) [23i (R,R), (2R,3R)-2-(2-Hydroxy-2-phenylethylcarbamoyl)-3-(N^2-(3-phenylpropanoylvalylalanyl)-N^1-carboxymethylhydrazinocarbonyl)oxirane]",400 ± 19 M⁻¹ s⁻¹
11,"CC(NC(=O)[C@@H]1O[C@H]1C(=O)N(CC(=O)O)NC(=O)[C@H](C)NC(=O)[C@@H](NC(=O)CCc1ccccc1)C(C)C)C(=O)NCc1ccccc1 (stereo partly drawn) [23j (R,R), (2R,3R)-2-(1-Benzylcarbamoylethylcarbamoyl)-3-(N^2-(3-phenylpropanoylvalylalanyl)-N^1-carboxymethylhydrazinocarbonyl)oxirane]",268 ± 75 M⁻¹ s⁻¹
12,"CC(C)[C@H](NC(=O)CCc1ccccc1)C(=O)N[C@@H](C)C(=O)NN(CC(=O)O)C(=O)[C@@H]1O[C@H]1C(=O)NC(Cc1ccccc1)C(N)=O (stereo partly drawn) [23l (R,R), (2R,3R)-2-(1-Amido-phenethylcarbamoyl)-3-(N^2-(3-phenylpropanoylvalylalanyl)-N^1-carboxymethylhydrazinocarbonyl)oxirane]",330 M⁻¹ s⁻¹

# Molecular target: T2, caspase-3 (Homo sapiens, UniProt P42574)
# T2 construct: made in house; host or cells: E. coli
# T2 sequence (P42574 29-175 limits assumed): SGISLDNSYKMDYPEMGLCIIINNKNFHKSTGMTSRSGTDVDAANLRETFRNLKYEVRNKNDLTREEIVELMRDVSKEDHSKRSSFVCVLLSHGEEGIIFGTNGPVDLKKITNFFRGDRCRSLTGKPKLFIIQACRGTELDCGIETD
# T2 sequence (P42574 176-277 limits assumed): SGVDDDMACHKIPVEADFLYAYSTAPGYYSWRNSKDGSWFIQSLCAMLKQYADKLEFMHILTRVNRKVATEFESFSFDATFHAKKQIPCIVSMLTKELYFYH
# Assay: Caspase-3 progress curve assay
# Assay type: biochemical
# Settings: substrate Z-DEVD-AFC; NI = no inhibition
# Experimental: Caspase-3, -6, and -8. Caspase-3, -6 and -8 were expressed in E. coli and purified according to methods previously described by Stennicke and Salvesen. Assays using the fluorogenic substrate Z-DEVD-AFC (λex=400 nm, λem=505 nm) were carried out on a Molecular Devices fMax fluorescence microplate reader. Inhibition rates and equilibria were determined by the progress curve method. The standard 100 μL reaction was started by adding enzyme to a mixture of substrate (final concentration of Z-DEVD-AFC 100 μM) and various amounts of inhibitor in buffer (50 mM Hepes, 100 mM NaCl, 0.1% (w/v) CHAPS, sucrose 10% (w/v), and 10 mM DTT, at pH 7.4). The caspases were pre-activated for 10 min at 37° C. in the presence of 10 mM DTT.
row,Structure (SMILES),k2 caspase-3
1,"CC(C)[C@H](NC(=O)OCc1ccccc1)C(=O)NN(CC(=O)O)C(=O)[C@@H]1O[C@H]1c1ccc(Cl)cc1 (relative stereo) [22b, trans-2-(N^2-(N-Benzyloxycarbonylvalyl)-N^1-carboxymethylhydrazinocarbonyl)-3-(4-chlorophenyl)oxirane]",145 ± 18 M⁻¹ s⁻¹
2,"CC(C)C(NC(=O)OCc1ccccc1)C(=O)NN(CC(=O)O)C(=O)C1OC1CCc1ccccc1 (stereo not drawn) [22a, Cbz-Val-AAsp-(trans)-EP-CH2CH2Ph]",310 ± 5 M⁻¹ s⁻¹
3,"CCOC(=O)C1OC1C(=O)N(CC(=O)O)NC(=O)C(NC(=O)OCc1ccccc1)C(C)C [22c, Cbz-Val-AAsp-(S,S)-EP-COOEt]",3650 ± 570 M⁻¹ s⁻¹
4,"CC(C)C(NC(=O)OCc1ccccc1)C(=O)NN(CC(=O)O)C(=O)C1OC1C(=O)O [22n, Cbz-Val-AAsp-(S,S)-EP-COOH]",1110 ± 340 M⁻¹ s⁻¹
5,"CCOC(=O)[C@H]1O[C@@H]1C(=O)N(CC(=O)O)NC(=O)[C@H](C)NC(=O)[C@@H](NC(=O)CCc1ccccc1)C(C)C [23c (S,S), (2S,3S)-3-(N^2-(3-Phenylpropanoylvalylalanyl)-N^1-carboxymethylhydrazinocarbonyl)oxirane-2-carboxylic Acid Ethyl Ester]",1040 ± 80 M⁻¹ s⁻¹
6,"CC(C)[C@H](NC(=O)CCc1ccccc1)C(=O)N[C@@H](C)C(=O)NN(CC(=O)O)C(=O)[C@H]1O[C@@H]1C(=O)OCCc1ccccc1 [23e, (2S,3S)-3-(N^2-(3-Phenylpropanoylvalylalanyl)-N^1-carboxymethylhydrazinocarbonyl)oxirane-2-carboxylic Acid Phenethyl Ester]",2110 ± 50 M⁻¹ s⁻¹
7,"CCNC(=O)[C@H]1O[C@@H]1C(=O)N(CC(=O)O)NC(=O)[C@H](C)NC(=O)[C@@H](NC(=O)CCc1ccccc1)C(C)C [23f, (2S,3S)-2-(2-Ethylcarbamoyl)-3-(N^2-(3-phenylpropanoylvalylalanyl)-N^1-carboxymethylhydrazinocarbonyl)oxirane]",1910 ± 370 M⁻¹ s⁻¹
8,"CC(C)[C@H](NC(=O)CCc1ccccc1)C(=O)N[C@@H](C)C(=O)NN(CC(=O)O)C(=O)[C@H]1O[C@@H]1C(=O)NCc1ccccc1 [23g (S,S), (2S,3S)-2-(2-Benzylcarbamoyl)-3-(N^2-(3-phenylpropanoylvalylalanyl)-N^1-carboxymethylhydrazinocarbonyl)oxirane]",1610 ± 5 M⁻¹ s⁻¹
9,"CC(C)[C@H](NC(=O)CCc1ccccc1)C(=O)N[C@@H](C)C(=O)NN(CC(=O)O)C(=O)[C@H]1O[C@@H]1C(=O)NCCc1ccccc1 [23h (S,S), (2S,3S)-2-(2-Phenethylcarbamoyl)-3-(N^2-(3-phenylpropanoylvalylalanyl)-N^1-carboxymethylhydrazinocarbonyl)oxirane]",1110 ± 100 M⁻¹ s⁻¹
10,"CC(C)C[C@H](NC(=O)OCc1ccccc1)C(=O)N[C@@H](CCC(=O)O)C(=O)N[C@H](C(=O)NN(CC(=O)O)C(=O)[C@H]1O[C@@H]1C(=O)NCCc1ccccc1)[C@@H](C)O [26h, (2S,3S)-2-(2-Phenethylcarbamoyl)-3-(N^2-(N -benzyloxycarbonylleucylglutamylthreonyl)-N^1-carboxymethylhydrazinocarbonyl)oxirane]",2550 ± 25 M⁻¹ s⁻¹
11,"CC(C)C[C@H](NC(=O)OCc1ccccc1)C(=O)N[C@@H](CCC(=O)O)C(=O)N[C@H](C(=O)NN(CC(=O)O)C(=O)[C@H]1O[C@@H]1C(=O)NC(C)C(=O)NCc1ccccc1)[C@@H](C)O (stereo partly drawn) [26j, (2S,3S)-2-(1-Benzylcarbamoyl-ethylcarbamoyl)-3-(N^2-(N-benzyloxycarbonylleucylglutamylthreonyl)-N^1-carboxymethylhydrazinocarbonyl)oxirane]",1280 ± 77 M⁻¹ s⁻¹
12,"CC[C@H](C)[C@H](NC(=O)OCc1ccccc1)C(=O)N[C@@H](CCC(=O)O)C(=O)N[C@H](C(=O)NN(CC(=O)O)C(=O)[C@H]1O[C@@H]1C(=O)NC(C)C(=O)NCc1ccccc1)[C@@H](C)O (stereo partly drawn) [27j, (2S,3S)-2-(1-Benzylcarbamoyl-ethylcarbamoyl)-3-(N^2-(N-benzyloxycarbonylisoleucylglutamylthreonyl)-N^1-carboxymethylhydrazinocarbonyl)oxirane]",3050 M⁻¹ s⁻¹
